In assay [1] the test system is murine HSCs (LKS CD150+CD48−). In words: Mitochondrial membrane potential (TMRM staining, flow cytometry) of cultured murine HSCs. The format is cell-based, mouse. The following applies: compared to the Basal condition; day 3 of culture; NR 500 uM, Vit B12 (MC) 100 uM. As for the experimental part:
Flow cytometry analysis was performed on freshly isolated bone marrow (BM) from C57BI6 mice. BM was extracted from crushed femora and tibia. Cell suspension was filtered through a 70 μm cell strainer and erythroid cells were eliminated by incubation with red blood cell lysis buffer (eBioscences). Isolation and stains were performed in ice-cold PBS 1 mM EDTA. Lineage positive cells were then removed with a magnetic lineage depletion kit (BD biosciences). Cell suspensions were then stained with specific antibodies for the stem cell compartment and sorted by FACS (BD FACS Aria III) into 1.5 ml Eppendorf tubes.
The following antibodies were used in this study: rat mAbs against cKit (2B8), Sca1 (D7), CD150 (TC-15-12F12.2), CD48 (HM48-1). The antibodies were purchased from Biolegend, eBiosciences and BD. A mixture of biotinylated mAbs against CD3, CD11b, CD45R/B220, Ly-6G, Ly-6C and TER-119 was used as lineage marker (“lineage cocktail”) and was purchased from BD. DAPI or propidium iodine (PI) staining was used for live/dead cell discrimination.
Murine HSCs were sorted into 1.5 ml Eppendorf tubes and were cultured in Stemline II (SIGMA) supplemented with 100 ng/ml SCF (R&D) and 2 ng/ml Flt3 (R&D). This was defined as the basal condition. Different concentrations as indicated of UroA, NR and Vit B12 (MC) were added in specific wells. NR was supplemented every 24 hours.
Mouse HSCs already in culture were incubated at 37° C. for 1 hour with 200 nM tetramethylrhodamine methyl ester (TMRM; Invitrogen) and 100 nM Mitotracker green. Cells were then washed with FACS buffer and analysed by flow cytometry on a BD LSR II.
Freshly FACS sorted mHSCs (LKS CD150+CD48−) were cultured in basal media (Stemline+SCF+FLT3L) supplemented with UroA, NR and MC in specific wells (as indicated). Cells were harvested at day 3 and stained with tetramethylrhodamine methyl ester (TMRM; to measure mitochondria membrane potential) and Mitotracker (to measure mitochondrial mass) and analysed by flow cytometry.

Assay [2] deals with human HSCs. As to conditions: culture media supplemented with nicotinamide riboside, primary and secondary recipient humanised mice; cited from earlier work.

The structures appear in SMILES notation. Entries after “also recorded” stand apart in the source; their conditions may differ.

Consider `C/C1=C2/[N-][C@H]([C@H](CC(N)=O)[C@@]2(C)CCC(=O)NC[C@@H](C)OP(=O)([O-])O[C@H]2[C@@H](O)[C@@H](n3cnc4cc(C)c(C)cc43)O[C@@H]2CO)[C@]2(C)N=C(/C(C)=C3N=C(/C=C4N=C1[C@@H](CCC(N)=O)C\4(C)C)[C@@H](CCC(N)=O)[C@]\3(C)CC(N)=O)[C@@H](CCC(N)=O)[C@]2(C)CC(N)=O.[CH3-].[Co]` [MC, methylcobalamine], for which, in assay [1], the “MFI TMRM (Mean Fluorescence Intensity)” value is “significantly decreased; also recorded: decreases” and the “proportion of cells in the TMRM low gate” value is recorded as “significantly increased; also recorded: increases”.
Turning to `NC(=O)c1ccc[n+]([C@@H]2O[C@H](CO)[C@@H](O)[C@H]2O)c1` [NR, Nicotinamide riboside], in assay [1], the “MFI TMRM (Mean Fluorescence Intensity)” value is “significantly decreased; also recorded: decreases” and the “proportion of cells in the TMRM low gate” value is listed as “significantly increased; also recorded: increases”. The levels of engraftment entry in assay [2] is reported as “significantly higher”.
